By IC50 is commonly meant the midpoint of a concentration-inhibition curve.

Test [1] concerns HCT-116. Kind of test: Cytotoxicity against human HCT116 cells assessed as cell survival at 5 to 40 uM after 7 days by crystal violet staining assay. In kind it is functional, cell-based. The following applies: HCT-116, 168 h.
Test [2] relates to HCT-116. Briefly: Cytotoxicity against human HCT116 cells by MTT assay. Format: functional, cell-based.

With `COc1ccc2c(c1)C=C(C(=O)/C=C/C1=Cc3cccc(OC)c3OC1)CO2`, the IC50 in test [1] was found to be 7.19 µM. Regarding `COc1ccc2c(c1)C=C(C(=O)/C=C/c1ccc(OC)cc1OC)CO2`, in test [1], the IC50 is 3.97 µM.

On to `COc1ccc(C(=O)/C=C/C2=Cc3cc(OC)ccc3OC2)cc1`, for which the half-maximal inhibitory concentration (IC50) in test [1] was 7.95 µM. Same read-out and setting: to `COc1cc(/C=C/C(=O)C2=Cc3cc(OC)ccc3OC2)cc(OC)c1` belongs 0.33 µM; to `COc1ccc2c(c1)C=C(C(=O)/C=C/C1=Cc3ccc(OC)cc3OC1)CO2`, 18.8 µM. On the same count and under the same terms, to `COc1ccc2c(c1)C=C(C(=O)/C=C/c1cc(OC)c(OC)cc1OC)CO2` belongs 2.5 µM. Same read-out and setting: to `COc1cc(OC)cc(C(=O)/C=C/C2=Cc3cc(Br)ccc3OC2)c1` belongs 3.4 µM; to `COc1ccccc1C(=O)/C=C/C1=Cc2cc(Br)ccc2OC1`, 6.13 µM. Regarding `COc1ccc2c(c1)C=C(C(=O)/C=C/c1ccccc1OC)CO2`, the IC50 in test [1] was found to be 1.62 µM. The compound `O=C(O[C@H]1Cc2c(O)cc(O)cc2O[C@@H]1c1ccc(O)c(O)c1)c1cc(O)c(O)c(O)c1` [CATECHIN GALLATE] gave a 50% inhibitory concentration (IC50) in test [2] of 53 µM. As for `COc1cc(OC)cc(C(=O)/C=C/C2=Cc3cc(OC)ccc3OC2)c1`, the IC50 in test [1] stood at 35.5 µM. As to `O=C(O[C@@H]1Cc2c(O)cc(O)cc2O[C@@H]1c1ccc(O)c(O)c1)c1cc(O)c(O)c(O)c1` [EPICATECHIN GALLATE], the IC50 in test [2] came out at 76 µM. As for `COc1cccc(C(=O)/C=C/C2=Cc3cc(Br)ccc3OC2)c1`, the IC50 in test [1] turned out to be 4.56 µM. Turning to `COc1ccc(/C=C/C(=O)C2=Cc3cc(OC)ccc3OC2)cc1`, the IC50 in test [1] was 0.59 µM. In the case of `COc1ccc2c(c1)C=C(/C=C/C(=O)C1=Cc3cc(OC)ccc3OC1)CO2`, the IC50 in test [1] stood at 12.9 µM. In the case of `COc1ccc(C(=O)/C=C/C2=Cc3ccc(OC)cc3OC2)cc1`, the IC50 in test [1] amounted to 10.5 µM. As to `COc1ccc2c(c1)C=C(/C=C/C(=O)c1ccccc1OC)CO2`, the IC50 in test [1] stood at 1.04 µM.

The record behind these values is ChEMBL document CHEMBL2396526, “Chromenylchalcones showing cytotoxicity on human colon cancer cell lines and in silico docking with aurora kinases” (Bioorg Med Chem, 2013).
